From patent publication US20100099762A1, “COMBINATION THERAPY” (THE MENTAL HEALTH RESEARCH INSTITUTE OF VICTORIA, priority 2006, published 2010)
Marks after values point to notes of the source that are not given here.

Tested on: schizophrenia
Assay: Randomised double blind multicentre placebo controlled trial of NAC in combination with an antipsychotic agent in schizophrenia
Format: in vivo, human
From the text: There is preclinical evidence of a reduction in antioxidant defences in schizophrenia, particularly a reduction in glutathione, which is a primary endogenous antioxidant defence. N-acetyl cysteine (NAC) is a bioavailable precursor of glutathione. This Example is a randomised double blind multicentre placebo controlled trial of the use of NAC in combination with an antipsychotic agent in the treatment of schizophrenia. A total of 140 individuals were randomised to receive 2 g daily of NAC in two divided doses, or placebo, together with their normal dosage of antipsychotic agent.
Participants were assigned randomly and consecutively to treatment with NAC or placebo in a double blind fashion. The randomisation log was generated by an independent individual using the traditional coin tossing method. The investigators and clinicians remained blind until data analysis was completed. The person generating the randomisation schedule was not involved in participant interviews, either for participant eligibility or outcome measurements.
All participants remained on their usual antipsychotic medication for the duration of the trial. The dose of the primary therapy was monitored. Participants were recruited through advertisements, referral by case clinicians and through database screening. All participants provided written informed consent as part of complying with the protocol.
All randomised participants received two NAC (500 mg) capsules twice daily, to a total dose of 2 g daily, or matching placebo capsules. Human dosing can be up to 5 g/day without adverse effects (Louwerse E. S. et al., 1995). A daily dose that is within the range of efficacy in published clinical trials (Adair J. C. et al., 2001, Van Schooten F. J. et al., 2002, and Behr J, et al., 2002) was selected. Once per day dosing is desirable in the drug treatment of schizophrenia, where medication compliance is known to be a challenge in management. However, steady state plasma levels cannot be achieved with a once daily oral dose of NAC as the plasma half-life is only 2-3 hours (Holdiness M. R., 1991 and Kelly G. S., 1998). While a twice-daily (BID) dosing regimen would also not be expected to achieve steady state plasma levels, dose intervals beyond BID were considered to markedly increase the risk of non-compliance in this population.
To be included, the patients were required to meet Diagnostic and Statistical Manual of Mental Disorders, fourth edition (DSM-IV) (Association AP, 1994) criteria for schizophrenia and have a PANSS total score of ≧55, or at least two items in the positive and/or negative items being >3, or have a CGI-S≧3. They needed to have the capacity to consent to the study, and be aged between 18 and 65. Both inpatients and outpatients were eligible. Participants needed to be currently taking an antipsychotic agent and to be utilising effective contraception if female and of childbearing age. Exclusion criteria included patients with abnormal renal, hepatic, thyroid or haematological findings, patients with a systemic medical disorder including asthma, allergies or any history of bronchospasm, respiratory insufficiency and recent gastrointestinal ulcers and females who were positive on pregnancy screening testing at baseline. Participants who were taking a mood stabiliser (e.g. lithium, valproate and carbamazepine) were excluded as were those currently taking drugs that are known to prevent GSH depletion (500+mg of NAC/day, 200+ug of selenium/day or 500+IU of Vitamin E/day).
Withdrawal from the trial occurred if participants ceased taking their trial medication for seven consecutive days, or ceased effective contraception, or became pregnant. A change in primary antipsychotic from one medication to another required participants to be withdrawn from the study. Similarly, the addition of a mood stabiliser required withdrawal of the participant. Dose changes to existing medications were not an exclusion criterion, and this was monitored. […]

[1] = baseline to week 8, LOCF ANCOVA
[2] = baseline to week 24, LOCF ANCOVA
[3] = baseline to week 24, LOCF ANCOVA with treatment by investigator interaction
[4] = score at week 24, end of treatment

- Mean gain in weight at week 24 (NAC group, n=33): 0.394 kg
- Mean weight gain at week 8 (NAC group, n=43): 1.372 kg
SMILES: CC(=O)N[C@@H](CS)C(=O)O [NAC, N-acetyl cysteine]
- Number of patients with clinician-observed improvement (CGI-S), NAC group versus placebo group (16 weeks of treatment): more than two-fold greater
- Range of CGI-S improvement from baseline in improved subjects (16 weeks of treatment): 1-3 points
- Effects on safety parameters, including vital signs, weight and clinical biochemistry values (24 weeks NAC 2 g daily): no significant effects
- GAF mean overall change from baseline to endpoint, NAC treatment group (ANCOVA, within-group): +4.5 points
- PANSS scales, NAC versus placebo over all visits (MMRM): did not detect a significant difference
- PANSS-Negative items 3 and 6 over all visits (MMRM of individual items): significant (p<0.05) benefit
- Individual PANSS items at specific visits (MMRM of individual items, weeks 2, 4, 8, 16, 20, 24): significant (p<0.05) improvements on several items
- GAF average improvement over all visits, NAC group (MMRM, within-group): +3.1 points
- CGI-S: Within NAC Group Week 8 Mean Overall Change (95% CI) (NAC 2 g daily plus usual antipsychotic, baseline to week 8, LOCF ANCOVA): −0.32 (−0.48, −0.15)**
- Functioning as measured by the GAF scale or the SOFAS, between groups (NAC versus placebo): no between-group differences
- Effect size (Cohen's d statistic) on the BAS (after 24 weeks of NAC treatment): 0.44
- BAS: Within NAC Group Week 8 Mean Overall Change (95% CI) (akathisia, baseline to week 8, LOCF ANCOVA): −0.23 (−0.58, 0.11)
- BAS: Within NAC Group Week 24 Mean Overall Change (95% CI) (akathisia, baseline to week 24, LOCF ANCOVA): −0.42 (−0.77, −0.06)*
- AIMS: Within NAC Group Week 8 Mean Overall Change (95% CI) [1]: 0.08 (−0.48, 0.65)
- GAF: Within NAC Group Week 8 Mean Overall Change (95% CI) [1]: 2.7 (0.22, 5.3)*
- PANSS General: Within NAC Group Week 8 Mean Overall Change (95% CI) [1]: −1.7 (−3.2, −0.26)*
- PANSS Negative: Within NAC Group Week 8 Mean Overall Change (95% CI) [1]: −0.18 (−1.2, 0.82)
- PANSS Positive: Within NAC Group Week 8 Mean Overall Change (95% CI) [1]: −1.6 (−2.6, −0.64)*
- PANSS Total: Within NAC Group Week 8 Mean Overall Change (95% CI) [1]: −3.6 (−6.3, −0.90)*
- SAS: Within NAC Group Week 8 Mean Overall Change (95% CI) [1]: −0.05 (−0.30, 0.21)
- SOFAS: Within NAC Group Week 8 Mean Overall Change (95% CI) [1]: −0.25 (−3.5, 3.0)
- AIMS: Within NAC Group Week 24 Mean Overall Change (95% CI) [2]: −0.44 (−1.03, 0.16)
- CGI-S: Within NAC Group Week 24 Mean Overall Change (95% CI) [2]: −0.35 (−0.56, −0.14)*
- GAF: Within NAC Group Week 24 Mean Overall Change (95% CI) [2]: 4.5 (1.5, 7.5)*
- PANSS Positive: Within NAC Group Week 24 Mean Overall Change (95% CI) [2]: −2.3 (−3.49, −1.09)**
- SAS: Within NAC Group Week 24 Mean Overall Change (95% CI) [2]: −0.17 (−0.46, 0.13)
- SOFAS: Within NAC Group Week 24 Mean Overall Change (95% CI) [2]: −0.69 (−4.99, 3.6)
- PANSS General: Within NAC Group Week 24 Mean Overall Change (95% CI) [3]: −4.4 (−6.39, −2.48)^d**
- PANSS Negative: Within NAC Group Week 24 Mean Overall Change (95% CI) [3]: −1.6 (−2.71, −0.46)^d
- PANSS Total: Within NAC Group Week 24 Mean Overall Change (95% CI) [3]: −8.8 (−12.2, −5.5)^d**
- Adverse events, NAC group compared to placebo group (checklist of 44 somatic items): No reported event was significantly more common
- Eye irritation, NAC treatment group compared to placebo (checklist of 44 somatic items): significantly less
- SAS or AIMS scores, placebo versus NAC over all visits (over all visits): no significant differences
- CGI-I: Within NAC Group Week 8 Mean (95% CI) (score at that time point (no baseline score), week 8, NAC 2 g daily plus antipsychotic): 3.1 (2.9, 3.4)
- CGI-I: Within NAC Group Week 24 Mean (95% CI) (score at that time point (no baseline score), week 24): 2.9 (2.6, 3.1)
- CGI-I: NAC Mean (95% CI) at post-treatment discontinuation (score at that time point, washout, week 28): 2.9 (2.5, 3.4)
- AIMS: NAC Mean Week 24 (SD) [4]: 2.2 (3.5)
- BAS: NAC Mean Week 24 (SD) [4]: 0.42 (0.93)
- CGI-I: NAC Mean Week 24 (SD) [4]: 2.9 (0.93)
- CGI-S: NAC Mean Week 24 (SD) [4]: 3.5 (1.0)
- GAF: NAC Mean Week 24 (SD) [4]: 54.4 (15.4)
- PANSS General: NAC Mean Week 24 (SD) [4]: 28.8 (8.5)
